For 15 compounds, Ki and Emax results are on record in patent US6465482B2, “Arylpiperazinyl-cyclohexyl indole derivatives for the treatment of depression” (Wyeth, priority 1999, dated 2002).

pKi: −log10 of the molar value.

Assay [1] concerns the target T1, human 5-HT1A receptor subtype (Homo sapiens, UniProt P08908).
T1 construct: expressed in transfected cells
T1 sequence (P08908 1-422): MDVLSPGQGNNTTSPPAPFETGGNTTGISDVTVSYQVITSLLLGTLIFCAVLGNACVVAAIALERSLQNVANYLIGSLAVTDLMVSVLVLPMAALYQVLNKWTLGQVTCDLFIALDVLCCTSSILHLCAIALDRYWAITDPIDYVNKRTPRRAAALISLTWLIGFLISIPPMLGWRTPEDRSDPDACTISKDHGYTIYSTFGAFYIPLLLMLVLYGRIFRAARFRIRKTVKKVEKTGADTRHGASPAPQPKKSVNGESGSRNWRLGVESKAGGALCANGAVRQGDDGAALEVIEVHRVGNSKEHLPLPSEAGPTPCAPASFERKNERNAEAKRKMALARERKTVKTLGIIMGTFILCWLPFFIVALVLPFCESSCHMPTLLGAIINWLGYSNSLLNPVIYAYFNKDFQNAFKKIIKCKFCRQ
Kind of assay: 5-HT1A receptor binding, [3H]8-OH-DPAT, CHO cell membranes. The settings on record: [3H]8-OH-DPAT 1.5 nM. Here is the method:
(§1) The PCR cloning of the human 5-HT1A receptor subtype from a human genomic library has been described previously Chanda et al., Mol. Pharmacol., 43:516 (1993). A stable Chinese hamster ovary cell line expressing the human 5-HT1A receptor subtype (5-HT1A.CH2O cells) was employed throughout this study. Cells were maintained in DMEM supplemented with 10% fetal calf serum, non-essential amino acids and penicillin/streptomycin.
Cells were grown to 95-100% confluency as a monolayer before membranes were harvested for binding studies. Cells were gently scraped from the culture plates, transferred to centrifuge tubes, and washed twice by centrifugation (2000 rpm for 10 min., 4° C.) in buffer (50 mM Tris; pH 7.5). The resulting pellets were aliquoted and placed at −80° C. On the day of assay, the cells were thawed on ice, and resuspended in buffer. Studies were conducted using [^3H]8-OH-DPAT as the radioligand. The binding assay was performed in 96 well microtiter plates in a final total volume of 250 μL of buffer. Competition experiments were performed by using 7 concentrations of unlabelled drug and a final ligand concentration of 1.5 nM. Non-specific binding was determined in the presence of 10 μM 5HT. Saturation analysis was conducted by using [^3H]8-OH-DPAT at concentaritions ranging from 0.3-30 nm Following a 30 minute incubation at room temperature, the reaction was terminated by the addition of ice cold buffer and rapid filtration using a M-96 Brandel Cell Harvester (Gaithersburg, Md.) through a GF/B filter presoaked for 30 minutes in 0.5% polyethylenenimine.

Assay [2] addresses T2, human 5-HT1A receptor subtype (5-HT1A CHO cells) (Homo sapiens, UniProt P08908).
T2 construct: expressed in transfected cells
T2 sequence (P08908 1-422): T1 sequence (P08908 1-422)
Kind of assay: forskolin-stimulated cAMP formation (cAMP SPA assay). The assay is classed as cell-based. To be noted: forskolin 1 uM. As to the method: as §1
The following assays were performed by incubating the cells with DMEM containing 25 mM HEPES, 5 mM theophylline and 10 μM pargyline for a period of 20 minutes at 37° C. Functional activity was assessed by treating the cells with forskolin (1 uM final concentration) followed immediately by test compound (6 concentrations) for an additional 10 minutes at 37° C. In separate experiments, 6 concentrations of antagonist were preincubated for 20 minutes prior to the addition of 10 nM 8-OH-DPAT and forskolin. The reaction was terminated by removal of the media and addition of 0.5 ml ice cold assay buffer. Plates were stored at −20° C. prior to assessment of cAMP formation by a cAMP SPA assay (Amersham).

In another assay the target is T3, serotonin transporter (Rattus norvegicus, UniProt P31652).
T3 construct: frontal cortical membranes prepared from male Sprague-Dawley rats; from tissue; host or cells: rat frontal cortex membranes
The assay can be described thus: serotonin transporter affinity, 3H-paroxetine binding, frontal cortical membranes. The settings on record: 3H-paroxetine 0.1 nM; read-out: ST (Ki, nM,). As to the method:
A protocol similar to that used by Cheetham et al., Neuropharmacol. […] Briefly, frontal cortical membranes prepared from male Sprague-Dawley rats were incubated with ^3H-paroxetine (0.1 nM) for 60 minutes at 25° C. […] All reactions are terminated by the addition of ice cold Tris buffer followed by rapid filtration using a Tom Tech filtration device to separate bound from free ^3H-paroxetine.

The target of assay [3] is T4, 5-HT1A cloned receptor membrane fragments (Homo sapiens, UniProt P08908).
T4 construct: expressed in transfected cells
T4 sequence (P08908 1-422): T1 sequence (P08908 1-422)
The assay can be described thus: [35S]-GTPγS binding assay. The assay is classed as biochemical. The settings on record: relative to excess 8-OH-DPAT maximum agonist response. Here is the method: The [^35S]-GTPγS biding assay was similar to that used by Lazarenno and Birdsall, Br. J. Pharmacol. 109:1120 (1993). Briefly, 5-HT1A cloned receptor membrane fragments (as used for 5-HT1A receptor binding assays were stored at −70° C. unit needed. When needed, membranes were rapidly thawed, centrifuged at […] for 10 minutes and resuspended at 4° C. for 10 minutes in assay buffer (25 mM HEPES, 3 mM MgCl2, 100 mM NaCl, 1 mM EDTA, 10 uM GDP, […], pH 8.0). These membranes were then incubated for 30 minutes at 30+ C. with [^35S]GTPgS (1 nM) in the presence of vehicle, test compound (one to eight concentrations), or excess 8-OH-DPAT to define maximum agonist response. All reactions are terminated by the addition of ice cold Tris buffer followed by rapid filtration using a Tom Tech® filtration device to separate bound from free [^35S]GTPgS. Agonists produce an increase in the amount of [^35S]GTPgS bound whereas antagonists produce no increase in binding. Bound radioactivity was counted and analyzed as above.
In general terms: Binding of GTPγS marks nucleotide exchange on a G protein.

T3 sequence (P31652 whole entry): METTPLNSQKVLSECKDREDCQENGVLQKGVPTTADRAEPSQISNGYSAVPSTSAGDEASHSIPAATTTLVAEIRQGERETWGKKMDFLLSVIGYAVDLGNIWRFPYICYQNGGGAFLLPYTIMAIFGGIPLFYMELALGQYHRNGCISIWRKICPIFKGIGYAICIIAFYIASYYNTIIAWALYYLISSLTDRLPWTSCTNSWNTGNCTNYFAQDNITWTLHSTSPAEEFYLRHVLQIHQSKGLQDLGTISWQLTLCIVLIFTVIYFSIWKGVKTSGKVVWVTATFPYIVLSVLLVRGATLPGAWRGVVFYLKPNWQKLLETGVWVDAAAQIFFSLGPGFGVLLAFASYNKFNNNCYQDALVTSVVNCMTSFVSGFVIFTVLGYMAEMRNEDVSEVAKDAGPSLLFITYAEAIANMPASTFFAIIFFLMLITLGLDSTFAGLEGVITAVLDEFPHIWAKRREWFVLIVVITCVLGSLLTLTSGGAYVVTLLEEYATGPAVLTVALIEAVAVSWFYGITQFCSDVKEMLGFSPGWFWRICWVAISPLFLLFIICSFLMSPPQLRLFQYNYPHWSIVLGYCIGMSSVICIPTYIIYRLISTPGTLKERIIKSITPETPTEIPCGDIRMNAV

As usually defined, the pKi is −log10 of the Ki, conventionally taken in molar units. A lower pKi goes with a high Ki. A word on the Emax: it is the maximal effect, on the per cent scale that the assay sets. Regarding `c1cc(N2CCN([C@H]3CC[C@@H](c4c[nH]c5ncccc54)CC3)CC2)c2cc[nH]c2c1` [Example 10a, 3-{(1,4-cis)-4-[4-(1H-Indole-4-yl)-piperazin-1-yl]-cyclohexyl}-1H-pyrrolo[2,3-b]pyridine], in assay [1], the pKi was 7.80. The compound further registered a maximal response (Emax) in assay [2] of 0%.
A word on the Ki: it is a measure of affinity in units of concentration, obtained from inhibition or displacement. Take `N#Cc1ccc2[nH]cc([C@H]3CC[C@@H](N4CCN(c5cccc6[nH]ccc56)CC4)CC3)c2c1` [Example 7a, 3-{4-[(1,4-cis)-4-(1H-Indol-4-yl)-piperazinyl-1-yl]cyclohexyl}-1H-indole-5-carbonitrile]: at serotonin transporter, the Ki worked out at 1.62 nM. The Emax in assay [3] and in assay [2] was 0% throughout.
For `Fc1ccc2c(c1)[nH]cc2[C@H]1CC[C@H](N2CCN(c3cccc4c3OCCO4)CC2)CC1` [Example 25b, 3-{(1,4-trans)-4-[4-(2,3-Dihydro-benzo[1,4]dioxin-5-yl)-piperazin-1-yl]-cyclohexyl}-6-fluoro-1H-indole], the pKi in assay [1] was 8.02. Moreover, the inhibition constant (Ki) at serotonin transporter was 58 nM. The compound also registered an Emax in assay [3] of 46%.
Turning to `N#Cc1ccc2[nH]cc([C@H]3CC[C@@H](N4CCN(c5cccc6cccnc56)CC4)CC3)c2c1` [Example 29a, 3-[(1,4-cis)-4-(4-Quinolin-8-yl-piperazin-1-yl)-cyclohexyl]-1H-indole-5-carbonitrile], the Ki on serotonin transporter stood at 2.25 nM. The same compound registered a maximal effect (Emax) in assay [2] of 0%.
For `N#Cc1ccc2[nH]cc([C@H]3CC[C@H](N4CCN(c5cccc6[nH]ccc56)CC4)CC3)c2c1` [Example 7b, 3-{4-[(1,4-trans)-4-(1H-Indol-4-yl)-piperazinyl-1-yl]cyclohexyl}-1H-indole-5-carbonitrile], in that order: 4.19 nM and 83%.
In turn, `Fc1ccc2[nH]cc([C@H]3CC[C@@H](N4CCN(c5cccc6c5OCCO6)CC4)CC3)c2c1` [Example 24a, 3-{(1,4-cis)-4-[4-(2,3-Dihydro-benzo[1,4]dioxin-5-yl)-piperazin-1-yl]-cyclohexyl}-5-fluoro-1H-indole] had a negative-log Ki (pKi) in assay [1] of 7.18. Moreover, on serotonin transporter, the Ki is 6.9 nM. This compound also returned an Emax in assay [2] of 81%.
In assay [3], `N#Cc1ccc2[nH]cc([C@H]3CC[C@H](N4CCN(c5cccc6cccnc56)CC4)CC3)c2c1` [Example 29b, 3-[(1,4-trans)-4-(4-Quinolin-8-yl-piperazin-1-yl)-cyclohexyl]-1H-indole-5-carbonitrile] gave an Emax of 70%.
As for `Fc1ccc2c(c1)[nH]cc2[C@H]1CC[C@@H](N2CCN(c3cccc4c3OCCO4)CC2)CC1` [Example 25a, 3-{(1,4-cis)-4-[4-(2,3-Dihydro-benzo[1,4]dioxin-5-yl)-piperazin-1-yl]-cyclohexyl}-6-fluoro-1H-indole], the pKi in assay [1] is 7.17. Also, the inhibitory constant (Ki) at serotonin transporter came to 63 nM. Further, the maximum response (Emax) in assay [2] worked out at 0%.
Take `N#Cc1ccc2[nH]cc([C@H]3CC[C@H](N4CCN(c5cccc6c5OCCO6)CC4)CC3)c2c1` [Example 26b, 3-{(1,4-trans)-4-[4-(2,3-Dihydro-benzo[1,4]dioxin-5-yl)-piperazin-1-yl]-cyclohexyl}-1H-indole-5-carbonitrile]: the negative logarithm of the Ki (pKi) in assay [1] is 8.07. Also, at serotonin transporter, the Ki was 23 nM. The same compound showed an Emax in assay [3] of 39%.
Compound `COc1ccccc1C1CCN([C@H]2CC[C@H](c3c[nH]c4ccc(F)cc43)CC2)CC1` [Example 19b, 5-Fluoro-3-{(1,4-trans)-4-[4-(2-methoxy-phenyl)-piperidin-1-yl]-cyclohexyl}-1H-indole] had a negative-log Ki (pKi) in assay [1] of 7.58. Moreover, the figures for the Emax in assay [3] and in assay [2] were 74% and 92%, respectively.
On to `c1cc(N2CCN([C@H]3CC[C@H](c4c[nH]c5ncccc54)CC3)CC2)c2cc[nH]c2c1` [Example 10b, 3-{(1,4-trans)-4-[4-(1H-Indole-4-yl)-piperazin-1-yl]-cyclohexyl}-1H-pyrrolo[2,3-b]pyridine], for which the pKi in assay [1] was 8.11. For the same compound, the maximal response (Emax) was 14% in assay [3] and 79% in assay [2].
With `COc1ccc2[nH]cc([C@H]3CC[C@H](N4CCN(c5ccccc5OC)CC4)CC3)c2c1` [Example 20b, 5-Methoxy-3-{(1,4-trans)-4-[4-(2-methoxy-phenyl)-piperazin-1-yl]-cyclohexyl}-1H-indole], the pKi in assay [1] was 7.83. Also, the results for the Emax in assay [3] and in assay [2] were 33% and 75.5%, respectively.
In assay [1], `Fc1ccc2[nH]cc([C@H]3CC[C@@H](N4CCN(c5cccc6[nH]ccc56)CC4)CC3)c2c1` [Example 3a, 5-Fluoro-3-[cis-4-[4-(1H-indol-4-yl)-1-piperazinyl]cyclohexyl]-1H-indole] showed a pKi of 7.44. Besides, the Emax was 10% in assay [3] and 0% in assay [2].
In assay [1], `Cn1cc([C@H]2CC[C@@H](N3CCN(c4cccc5cccnc45)CC3)CC2)c2cc(C#N)ccc21` [Example 30, 1-Methyl-3-[(1,4-cis)-4-(4-quinolin-8-yl-piperazin-1-yl)-cyclohexyl]-1H-indole-5-carbonitrile] gave a pKi of 7.61. Moreover, the Ki at serotonin transporter was 1.25 nM. The same compound registered an Emax in assay [2] of 95%.
Turning to `N#Cc1ccc2[nH]cc([C@H]3CC[C@@H](N4CCN(c5cccc6c5OCCO6)CC4)CC3)c2c1` [Example 26a, 3-{(1,4-cis)-4-[4-(2,3-Dihydro-benzo[1,4]dioxin-5-yl)-piperazin-1-yl]-cyclohexyl}-1H-indole-5-carbonitrile], in assay [1], the negative logarithm of the Ki (pKi) was 7.23. Further, the Ki at serotonin transporter amounted to 4.1 nM. Further, the maximum response (Emax) turned out to be 18% in assay [3] and 0% in assay [2].
